Measured values reported in patent US20230116972A1, “CD38 MODULATORS AND METHODS OF USE THEREOF” (Cytokinetics, Inc., priority 2021, published 2023).

Target: T1, CYP2C8 (Homo sapiens, UniProt P10632)
T1 construct: Pooled human microsomes and selective CYP probe substrates were used; from tissue; host or cells: pooled human (hepatic) microsomes
T1 sequence (P10632 1-490): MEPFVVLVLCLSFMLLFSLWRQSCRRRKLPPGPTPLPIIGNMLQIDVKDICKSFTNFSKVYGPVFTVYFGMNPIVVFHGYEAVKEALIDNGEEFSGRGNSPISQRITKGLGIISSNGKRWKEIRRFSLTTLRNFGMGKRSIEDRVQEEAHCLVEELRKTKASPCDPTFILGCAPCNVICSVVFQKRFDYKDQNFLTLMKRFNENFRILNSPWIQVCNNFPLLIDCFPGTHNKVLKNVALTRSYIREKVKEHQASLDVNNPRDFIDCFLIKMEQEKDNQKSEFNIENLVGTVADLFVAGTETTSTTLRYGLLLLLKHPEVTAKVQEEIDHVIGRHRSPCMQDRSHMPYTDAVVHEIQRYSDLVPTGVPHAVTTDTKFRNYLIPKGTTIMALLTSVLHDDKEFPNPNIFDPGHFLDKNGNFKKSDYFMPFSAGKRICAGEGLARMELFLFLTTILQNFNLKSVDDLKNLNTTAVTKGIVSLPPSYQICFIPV
Assay: time dependent inhibition of CYP450 in pooled human microsomes
Type: in vitro ADME
Experimental: Time dependent inhibition: An assessment of the time-dependent Inhibitory potential of test compounds against the principal human cytochrome P450 isozymes was carried out using standard methods (Grimm et al, “The Conduct of in Vitro Studies to Address Time-Dependent Inhibition of Drug-Metabolizing Enzymes: A Perspective of the Pharmaceutical Research and Manufacturers of America”, Drug Metabolism and Disposition, 37 (7): 1355, 2009). […] Each compound was pre-incubated at 37° C. plus and minus NADPH for 30 min, and with 0 min pre-incubation for assessment of potential time dependent inhibition. LC-MS/MS was used to quantify metabolite formation. […] Note that, in Tables 8 and 9, the “Compound No” corresponds to the compound numbers in Table 1.

CYP2C8 IC50 fold shift (between 30 min pre-incubation plus NADPH and 0 min): none
IC50 (pre-incubation 0 min): > 30 µM
IC50 (pre-incubation 30 min (NADPH)): > 30 µM
IC50 (pre-incubation 30 min (NO NADPH)): > 30 µM
SMILES: CO[C@H]1CC[C@H](NC(=O)c2nccc(-c3cncn3C)n2)CC1 [Compound 148, N-((1r,4r)-4-methoxycyclohexyl)-4-(1-methyl-1H-imidazol-5-yl)pyrimidine-2-carboxamide]
